Laboratory results from ChEMBL document CHEMBL2046382, “Synthesis, biological evaluation of 5-carbomethoxymethyl-7-hydroxy-2-pentylchromone, 5-carboethoxymethyl-4',7-dihydroxyflavone and their analogues” (Bioorg Med Chem Lett, 2012).
≈ marks a conversion by molar mass, not a printed value. Calls of active or inactive are those of the source. The rule behind the calls is not given here.

System: Staphylococcus aureus
Assay: Antibacterial activity against Staphylococcus aureus MTCC 2940 by modified microtiter broth dilution method
Assay type: functional
Conditions: not given
For `O=c1cc(-c2ccc(O)c(O)c2)oc2cc(O)cc(O)c12` [LUTEOLIN], the MIC was 18 µg/mL (≈ 62.9 µM).
With `COC(=O)Cc1cc(O)cc2oc(-c3ccccc3)cc(=O)c12` the MIC was 9 µg/mL (≈ 29 µM).
Molecule `CCCCCc1cc(=O)c2c(CC(=O)OC)cc(O)cc2o1` [PESTALOTIOPSONE F] has an MIC of 9 µg/mL (≈ 29.6 µM).
For `COC(=O)Cc1cc(O)cc2oc(-c3cc(O)c(O)c(O)c3)cc(=O)c12`, the MIC was 9 µg/mL (≈ 25.1 µM).
`COC(=O)Cc1cc(O)cc2oc(-c3ccc(Cl)cc3)cc(=O)c12` showed an MIC of 75 µg/mL (≈ 218 µM).

System: Bacillus subtilis
Assay: Antibacterial activity against Bacillus subtilis MTCC 121 at 80 ug/ml by modified microtiter broth dilution method
Assay type: functional, organism-based
Conditions: not given
With `O=c1cc(-c2ccc(O)c(O)c2)oc2cc(O)cc(O)c12` [LUTEOLIN] the Activity was “inactive”.
With `COC(=O)Cc1cc(O)cc2oc(-c3ccccc3)cc(=O)c12` the Activity was “inactive”.
With `CCCCCc1cc(=O)c2c(CC(=O)OC)cc(O)cc2o1` [PESTALOTIOPSONE F] the Activity was “inactive”.
With `COC(=O)Cc1cc(O)cc2oc(-c3cc(O)c(O)c(O)c3)cc(=O)c12` the Activity was “inactive”.
In the case of `COC(=O)Cc1cc(O)cc2oc(-c3ccc(Cl)cc3)cc(=O)c12`, the Activity was “inactive”.

System: Staphylococcus aureus
Assay: Antibacterial activity against Staphylococcus aureus MTCC 96 by modified microtiter broth dilution method
Assay type: functional
Conditions: not given
In the case of `O=c1cc(-c2ccc(O)c(O)c2)oc2cc(O)cc(O)c12` [LUTEOLIN], the MIC was 9 µg/mL (≈ 31.4 µM).
For `COC(=O)Cc1cc(O)cc2oc(-c3ccc(Cl)cc3)cc(=O)c12`, the MIC was 37 µg/mL (≈ 107 µM).

System: Staphylococcus aureus
Assay: Antibacterial activity against Staphylococcus aureus MTCC 96 at 80 ug/ml by modified microtiter broth dilution method
Assay type: functional, organism-based
Conditions: not given
With `COC(=O)Cc1cc(O)cc2oc(-c3ccccc3)cc(=O)c12` the Activity was “inactive”.
With `CCCCCc1cc(=O)c2c(CC(=O)OC)cc(O)cc2o1` [PESTALOTIOPSONE F] the Activity was “inactive”.
With `COC(=O)Cc1cc(O)cc2oc(-c3cc(O)c(O)c(O)c3)cc(=O)c12` the Activity was “inactive”.

System: Micrococcus luteus
Assay: Antibacterial activity against Micrococcus luteus MTCC 2470 by modified microtiter broth dilution method
Assay type: functional
Conditions: not given
Molecule `O=c1cc(-c2ccc(O)c(O)c2)oc2cc(O)cc(O)c12` [LUTEOLIN] has an MIC of 18 µg/mL (≈ 62.9 µM).

System: Micrococcus luteus
Assay: Antibacterial activity against Micrococcus luteus MTCC 2470 at 80 ug/ml by modified microtiter broth dilution method
Assay type: functional, organism-based
Conditions: not given
In the case of `COC(=O)Cc1cc(O)cc2oc(-c3ccccc3)cc(=O)c12`, the Activity was “inactive”.
In the case of `CCCCCc1cc(=O)c2c(CC(=O)OC)cc(O)cc2o1` [PESTALOTIOPSONE F], the Activity was “inactive”.
For `COC(=O)Cc1cc(O)cc2oc(-c3cc(O)c(O)c(O)c3)cc(=O)c12`, the Activity was “inactive”.
For `COC(=O)Cc1cc(O)cc2oc(-c3ccc(Cl)cc3)cc(=O)c12`, the Activity was “inactive”.

System: Raoultella planticola
Assay: Antibacterial activity against Klebsiella planticola MTCC 530 by modified microtiter broth dilution method
Assay type: functional
Conditions: not given
In the case of `CCCCCc1cc(=O)c2c(CC(=O)OC)cc(O)cc2o1` [PESTALOTIOPSONE F], the MIC was 9 µg/mL (≈ 29.6 µM).
Molecule `COC(=O)Cc1cc(O)cc2oc(-c3cc(O)c(O)c(O)c3)cc(=O)c12` has an MIC of 9 µg/mL (≈ 25.1 µM).

System: Raoultella planticola
Assay: Antibacterial activity against Klebsiella planticola MTCC 530 at 80 ug/ml by modified microtiter broth dilution method
Assay type: functional, organism-based
Conditions: not given
In the case of `O=c1cc(-c2ccc(O)c(O)c2)oc2cc(O)cc(O)c12` [LUTEOLIN], the Activity was “inactive”.
With `COC(=O)Cc1cc(O)cc2oc(-c3ccccc3)cc(=O)c12` the Activity was “inactive”.
In the case of `COC(=O)Cc1cc(O)cc2oc(-c3ccc(Cl)cc3)cc(=O)c12`, the Activity was “inactive”.

System: Escherichia coli
Assay: Antibacterial activity against Escherichia coli MTCC 739 by modified microtiter broth dilution method
Assay type: functional
Conditions: not given
`O=c1cc(-c2ccc(O)c(O)c2)oc2cc(O)cc(O)c12` [LUTEOLIN] showed an MIC of 4 µg/mL (≈ 14 µM).

System: Escherichia coli
Assay: Antibacterial activity against Escherichia coli MTCC 739 at 80 ug/ml by modified microtiter broth dilution method
Assay type: functional, organism-based
Conditions: not given
In the case of `COC(=O)Cc1cc(O)cc2oc(-c3ccccc3)cc(=O)c12`, the Activity was “inactive”.
In the case of `CCCCCc1cc(=O)c2c(CC(=O)OC)cc(O)cc2o1` [PESTALOTIOPSONE F], the Activity was “inactive”.
In the case of `COC(=O)Cc1cc(O)cc2oc(-c3cc(O)c(O)c(O)c3)cc(=O)c12`, the Activity was “inactive”.
For `COC(=O)Cc1cc(O)cc2oc(-c3ccc(Cl)cc3)cc(=O)c12`, the Activity was “inactive”.

System: Pseudomonas aeruginosa
Assay: Antibacterial activity against Pseudomonas aeruginosa MTCC 2453 by modified microtiter broth dilution method
Assay type: functional
Conditions: not given
For `COC(=O)Cc1cc(O)cc2oc(-c3ccc(Cl)cc3)cc(=O)c12`, the MIC was 37 µg/mL (≈ 107 µM).

System: Pseudomonas aeruginosa
Assay: Antibacterial activity against Pseudomonas aeruginosa MTCC 2453 at 80 ug/ml by modified microtiter broth dilution method
Assay type: functional, organism-based
Conditions: not given
In the case of `O=c1cc(-c2ccc(O)c(O)c2)oc2cc(O)cc(O)c12` [LUTEOLIN], the Activity was “inactive”.
For `COC(=O)Cc1cc(O)cc2oc(-c3ccccc3)cc(=O)c12`, the Activity was “inactive”.
In the case of `CCCCCc1cc(=O)c2c(CC(=O)OC)cc(O)cc2o1` [PESTALOTIOPSONE F], the Activity was “inactive”.
With `COC(=O)Cc1cc(O)cc2oc(-c3cc(O)c(O)c(O)c3)cc(=O)c12` the Activity was “inactive”.

System: Radical scavenging activity
Assay: Antioxidant activity assessed as DPPH free radical scavenging activity
Assay type: functional
Conditions: not given
With `O=c1cc(-c2ccc(O)c(O)c2)oc2cc(O)cc(O)c12` [LUTEOLIN] the EC50 was 44.18 µg/mL (≈ 154 µM).
Molecule `COC(=O)Cc1cc(O)cc2oc(-c3cc(O)c(O)c(O)c3)cc(=O)c12` has an EC50 of 55.08 µg/mL (≈ 154 µM).

System: not listed separately
Assay: Antioxidant activity assessed as superoxide radical scavenging activity
Assay type: functional
Conditions: not given
`O=c1cc(-c2ccc(O)c(O)c2)oc2cc(O)cc(O)c12` [LUTEOLIN] gave an EC50 of 31.01 µg/mL (≈ 108 µM).
`COC(=O)Cc1cc(O)cc2oc(-c3cc(O)c(O)c(O)c3)cc(=O)c12` showed an EC50 of 50.09 µg/mL (≈ 140 µM).

System: not listed separately
Assay: Antioxidant activity of the compound assessed as inhibition of lipid peroxidation
Assay type: functional
Conditions: not given
`O=c1cc(-c2ccc(O)c(O)c2)oc2cc(O)cc(O)c12` [LUTEOLIN] showed an EC50 of 134.1 µg/mL (≈ 468 µM).
In the case of `COC(=O)Cc1cc(O)cc2oc(-c3cc(O)c(O)c(O)c3)cc(=O)c12`, the EC50 was 156.21 µg/mL (≈ 436 µM).

System: not listed separately
Assay: Antioxidant activity in erythrocytes assessed as inhibition of hemolysis
Assay type: functional, cell-based
Conditions: erythrocyte
For `O=c1cc(-c2ccc(O)c(O)c2)oc2cc(O)cc(O)c12` [LUTEOLIN], the EC50 was 122 µg/mL (≈ 426 µM).
Molecule `COC(=O)Cc1cc(O)cc2oc(-c3cc(O)c(O)c(O)c3)cc(=O)c12` has an EC50 of 139.76 µg/mL (≈ 390 µM).

System: Radical scavenging activity
Assay: Antioxidant activity assessed as DPPH free radical scavenging activity after 48 hrs
Assay type: functional
Conditions: not given
In the case of `COC(=O)Cc1cc(O)cc2oc(-c3ccccc3)cc(=O)c12`, the Activity was “inactive”.
For `CCCCCc1cc(=O)c2c(CC(=O)OC)cc(O)cc2o1` [PESTALOTIOPSONE F], the Activity was “inactive”.
For `COC(=O)Cc1cc(O)cc2oc(-c3ccc(Cl)cc3)cc(=O)c12`, the Activity was “inactive”.

System: not listed separately
Assay: Antioxidant activity assessed as superoxide radical scavenging activity after 48 hrs
Assay type: functional
Conditions: not given
In the case of `COC(=O)Cc1cc(O)cc2oc(-c3ccccc3)cc(=O)c12`, the Activity was “inactive”.
With `CCCCCc1cc(=O)c2c(CC(=O)OC)cc(O)cc2o1` [PESTALOTIOPSONE F] the Activity was “inactive”.
With `COC(=O)Cc1cc(O)cc2oc(-c3ccc(Cl)cc3)cc(=O)c12` the Activity was “inactive”.

System: not listed separately
Assay: Antioxidant activity of the compound assessed as inhibition of lipid peroxidation after 48 hrs
Assay type: functional
Conditions: not given
With `COC(=O)Cc1cc(O)cc2oc(-c3ccccc3)cc(=O)c12` the Activity was “inactive”.
For `CCCCCc1cc(=O)c2c(CC(=O)OC)cc(O)cc2o1` [PESTALOTIOPSONE F], the Activity was “inactive”.
With `COC(=O)Cc1cc(O)cc2oc(-c3ccc(Cl)cc3)cc(=O)c12` the Activity was “inactive”.

System: Erythrocyte
Assay: Antioxidant activity in erythrocytes assessed as inhibition of hemolysis after 48 hrs
Assay type: functional, cell-based
Conditions: not given
With `COC(=O)Cc1cc(O)cc2oc(-c3ccccc3)cc(=O)c12` the Activity was “inactive”.
With `CCCCCc1cc(=O)c2c(CC(=O)OC)cc(O)cc2o1` [PESTALOTIOPSONE F] the Activity was “inactive”.
For `COC(=O)Cc1cc(O)cc2oc(-c3ccc(Cl)cc3)cc(=O)c12`, the Activity was “inactive”.

System: not listed separately
Assay: Chemical stability of the compound in antioxidant reaction
Assay type: physicochemical
Conditions: not given
With `COC(=O)Cc1cc(O)cc2oc(-c3ccccc3)cc(=O)c12` the Stability was “Unstable”.
With `CCCCCc1cc(=O)c2c(CC(=O)OC)cc(O)cc2o1` [PESTALOTIOPSONE F] the Stability was “Unstable”.
For `COC(=O)Cc1cc(O)cc2oc(-c3ccc(Cl)cc3)cc(=O)c12`, the Stability was “Unstable”.
